The source of these data is patent publication US20210260057A1, “COMPOSITIONS AND METHODS TARGETING GLUTAMINE AND ITS METABOLISM FOR DIAGNOSING AND TREATING CANCER AND THERAPY-ASSOCIATED SIDE EFFECTS” (CEDARS-SINAI MEDICAL CENTER, priority 2018, published 2021).

The test system of one test is RASAL3 mRNA in CAF. As to the kind of experiment: RASAL3 mRNA expression (rtPCR) in CAF. In kind it is cell-based, human. Conditions: 5-day treatment; Bic 10^−5 M, Enza 10^−5 M, R1881 10^−9 M, 5-Aza 5 mmol/L. On the procedure: (§1) RNA expression level. All real-time PCR assays were carried out using three technical replicates and three independent cDNA syntheses on a 7500 Real-Time PCR System (Applied Biosystems). Data were normalized using an internal control gene, either GAPDH or β-actin. Relative quantification of expression levels (RQ) was calculated using the ^2-ΔΔCt method.

In the next test the test system is primary CAF. As to the kind of experiment: Macropinocytosis assay (TMR-dextran uptake). In kind it is cell-based, human. Conditions: EIPA 25 μM, 5-Aza DC 5 μM (FIG. 9A). As to the method:
Macropinocytosis assay. These were performed as described previously (Commisso C, Davidson S M, Soydaner-Azeloglu R G, Parker S J, Kamphorst J J, Hackett S, Grabocka E, Nofal M, Drebin J A, Thompson C B, et al. Macropinocytosis of protein is an amino acid supply route in Ras-transformed cells. Nature. 2013; 497(7451):633-7), briefly fibroblasts which were grown on cover slips, serum-starved for 18 hours. TMR-dextran (1 mg/ml; 70 kDa, […]), which is an established marker of macropinocytosis, was added to serum-free medium for 30 min at 37° C. for macropinosomes labeling (Commisso C, Davidson S M, Soydaner-Azeloglu R G, Parker S J, Kamphorst J J, Hackett S, Grabocka E, Nofal M, Drebin J A, Thompson C B, et al. Macropinocytosis of protein is an amino acid supply route in Ras-transformed cells. Nature. 2013; 497(7451):633-7). […] Images were captured using laser confocal scanning microscopy (Leica) and analyzed via LASX software. […] The fluorescence signals in the cells were imaged using FSX100 (Olympus, USA). To determine whether the internalized albumin is intracellularly degraded, we have utilized a self-quenching red fluorescent dye, where lysosomal proteases enable red fluorescence visualization. Cells were incubated in RPMI media containing DQ-BSA (10 μg/ml) for 30 min and washed twice with PBS and monitored by confocal microscopy.

A further test concerns RASAL3 promoter. The experiment in a line: Methylation specific PCR of RASAL3 exon 2 in CAF. In kind it is cell-based, human. The conditions noted are these: CAF after treatment. On the procedure:
(FIG. 13A) Quantitative rtPCR analysis of RASAL3 in NAF and CAF was performed following 5 day treatment with bicalutamide (Bic, 10^−5 M), enzalutamide (Enza, 10^−5 M), R1881 (10^−9 M), or 5-Azacytidine (5-Aza, […]). RASAL3 expression was normalized GAPDH expression. Data represent the mean±SEM. *P<0.05, ***P<0.001, and ****P<0.0001, by two-way ANOVA followed by multiple comparison. Results are the average of at least three independent experiments. (FIG. 13B) MS-PCR of the RASAL3 exon 2 methylation status in CAF after treatment with enzalutamide, R1881, 5-Azacytidine and bicalutamide was performed. The PCR products in the lanes marked “U” indicate unmethylated templates for RASAL3 gene, whereas the products in the lanes marked “M” indicate methylated templates. Data are representative of three independent experiments.

Test [1] has as its system prostate cancer (serum PSA). As to the kind of experiment: PSA response of PCa patients on androgen targeted therapy. Details: PSA on treatment: unit not given beside the values. The conditions noted are these: for PSA on treatment: individual PCa patient on the listed Rx. In kind it is in vivo, human. An excerpt:
Plasma glutamine level may be prognostic for ADT sensitivity. Considering the striking finding that glutamine can induce ADT resistance, we tested if glutamine concentrations can be associated with ADT sensitivity in prostate cancer patients. We measured blood plasma glutamine concentrations in 28 PCa patients that received ADT (Table 1). Of note, the specific androgen signaling-axis interventions in the patient pool included, androgen receptor antagonists: bicalutamide, enzalutamide, and apalutamide, as well as androgen synthesis inhibitors: leuprolide, goserelin, triptorelin, and abiraterone.

A further test relates to CWR22Rv1 with CAF. The experiment in a line: 3D co-cultures of CAF-CWR22Rv1, neuroendocrine gene panel rtPCR. In kind it is cell-based, human. Conditions: in the context of enzalutamide, 3 days, glutamine free media, well below control levels, F test P<0.0001. As to the method:
(§2) 3D organotypic co-culture. A modified version of the 3D organotypic co-culture system was performed in a collagen matrix similar to that previously reported (Stark H J, Baur M, Breitkreutz D, Mirancea N, and Fusenig N E. Organotypic keratinocyte cocultures in defined medium with regular epidermal morphogenesis and differentiation. J Invest Dermatol. 1999; 112(5):681-91). Matrix were prepared by mixing five volumes of rat tail collagen with two volumes of matrigel in one volume of 10×DMEM medium (GE Healthcare Life Sciences), and one volume of FBS (Atlanta Biologicals). CWR22Rv1 and primary mouse prostatic fibroblasts (WT or RAS^V12) were combined in a 1:3 ratio in the matrix. Nylon squares were coated with collagen and placed on metal grids in a 6-well plate. Matrix plugs containing cells, formed in 96 well plates (150 μl), were transferred onto the nylon squares and media was added to the level of the nylon mesh. Following treatments, the cells were dissociated from the matrix with collagenase and dispase for FACS analysis.
as §1

The test system of test [2] is prostate cancer epithelial cells. As to the kind of experiment: ALDH (stem marker) in prostate cancer epithelial cells. In kind it is cell-based.
Test [3] has as its system human prostate cancer cells (CWR22Rv1). As to the kind of experiment: Gene expression in prostate cancer cells (FIG. 15A-D). In kind it is cell-based. The conditions noted are these: FIG. 15D.
The test system of a further test is PD1 and CD47 on CWR22Rv1. The experiment in a line: FACS of immune checkpoint proteins in prostate cancer/fibroblast co-culture. In kind it is cell-based, human. Conditions: CWR22Rv1 co-cultured with wild type or CD105-knockout fibroblasts.
The test system of the next test is CWR22Rv1 cells. As to the kind of experiment: 3D organotypic co-culture, epithelial proliferation by FACS (EpCAM+/Ki67+). The conditions noted are these: 3D co-cultures of fibroblasts and CWR22Rv1; P<0.05 (GPNA), P<0.001 (BPTES). In kind it is cell-based, human. As to the method:
as §2

Test [4] concerns CWR22Rv1 and Ras^V12 mouse fibroblast tissue recombinants. The experiment in a line: Orthotopic tissue recombinant xenograft, EIPA treatment. In kind it is in vivo. The conditions noted are these: SCID mice, anterior prostate grafts; EIPA for 1 week from two weeks after grafting, vs vehicle control; P<0.01 (FIG. 2H). An excerpt:
Tissue recombination mouse models.
To directly determine if Ras signaling confers a tumor supportive role associated with CAF, we used CRISPR/Cas9 to knock out Rasa13 in mouse prostatic fibroblasts. Compared to the expression of Cas9 fibroblasts (control), Ras activity and ERK phosphorylation was elevated in Rasa13-knockout (Rasa13-KO) fibroblasts (FIG. 2D). Rasa13-KO fibroblasts took up TMR dextran, whereas it was undetectable in the control fibroblasts (FIG. 2E). The exogenous expression of active Ras^V12 (Gly^12→Val^12) in wild-type mouse prostatic fibroblasts replicated the downstream ERK activation and macropinocytosis observed in CAF and Rasa13-KO cells (FIG. 2 F,G). Thus, epigenetic RASAL3 silencing of prostatic fibroblasts promoted familiar signaling and macropinocytosis associated with Ras transformation (Commisso et al., 2013). […] To test the role of stromal Ras-mediated macropinocytosis on tumor development, orthotopic PCa xenograft models were used. Tissue recombinants of Ras^V12-expressing fibroblasts and CWR22Rv1 epithelia were grafted into the anterior prostates of SCID mice. Two weeks later, mice were treated with vehicle control or EIPA for 1 week to suppress macropinocytosis (FIG. 2H). […] Thus, glutamine uptake by the tumor was necessary for its expansion.

Test [5] relates to Rasa13-KO mouse prostatic fibroblasts. As to the kind of experiment: MTT viability assay, Rasa13-KO fibroblasts. The conditions noted are these: 72 hrs incubation with EIPA, P<0.001. In kind it is cell-based. On the procedure:
(§3) (FIG. 10A) The viability of CWR22Rv1 and mouse prostatic fibroblasts (Cas9 control and Rasa13-KO) was measured by MTT assay following 72 hrs incubation with macropinocytotic inhibitor, EIPA. The bar graphs represent the absorbance of the MTT formazan determined at 570 nm from a single experiment representative of a total 3 independent experiments, each performed in quadruplicate. Statistical significance was determined by one-way ANOVA. (FIG. 10B) Quantitation of EpCAM-positive epithelial cells were achieved by FACS of 3D co-cultures of human C4-2B epithelia and wild type (WT) or Ras^V12 mouse fibroblasts. Statistical significance was determined by unpaired t test. (FIG. 10C) Stromal fibroblasts (Cas9 or Rasa13-KO) cultured with CWR22Rv1 epithelia using a standard transwell apparatus. […] Epithelial and stromal cells grown in glutamine free either DMEMF12 or RPMI media. are expressed as mean±SEM of 3 independent experiments. Statistical significance was determined by two-tailed student's t test. **P<0.01, ****P<0.0001.

The subject of the next test is CWR22Rv1. The experiment in a line: MTT viability assay, CWR22Rv1. In kind it is cell-based, human. Conditions: CWR22Rv1, 72 hrs incubation with EIPA. On the procedure:
as §3

Test [6] concerns mouse prostatic fibroblasts (Cas9 control). The experiment in a line: MTT viability assay, control (Cas9 / wild type) fibroblasts. In kind it is cell-based. The conditions noted are these: 72 hrs incubation with EIPA. On the procedure: as §3

SMILES strings stand for the structures. “And” between values parts separate entries of the source, which are not always exact repeats. Equal values may be shown once. A value given as a limit tells only on which side of the number the result lay.

For the compound `Nc1ncn([C@H]2C[C@H](O)[C@@H](CO)O2)c(=O)n1` [5-aza-2′-deoxycytidine], the “RASAL3 mRNA expression in CAF” value with RASAL3 mRNA in CAF is reported as “restored”. Moreover, the “TMR-dextran uptake by CAF (macropinocytosis)” value in the test with primary CAF is given as “inhibited”. Also, the “methylation of the RASAL3 promoter (methylation specific PCR)” value with RASAL3 promoter is “hypomethylation”.

Turning to `C[C@]12CC[C@H](O)CC1=CC[C@@H]1[C@@H]2CC[C@]2(C)C(c3cccnc3)=CC[C@@H]12` [A, Abiraterone], the PSA on treatment in test [1] is 26.2 and 6.4.

As for `O=C(Cc1ccccc1)Nc1nnc(CCSCCc2nnc(NC(=O)Cc3ccccc3)s2)s1` [BPTES, bis-2(5-phenylacetamido-1,3,4-thiadiazol-2-yl)ethyl sulfide], the “mRNA expression of the panel of neuroendocrine biomarker genes” value in the test on CWR22Rv1 with CAF is recorded as “significantly reduced”. Further, in test [2] (epithelial culture without stromal fibroblasts (FIG. 17B)), the “enzalutamide-upregulated ALDH” value was “can be limited”. Besides, the “enzalutamide-induced TET2 expression” value in [3] was “downregulates”. In the test with PD1 and CD47 on CWR22Rv1, the “CD47 expression (FACS)” value is on record as “downregulated” and the “PD1 expression (FACS)” value was “downregulated”. Moreover, the “epithelial proliferation (Ki-67 staining of EpCAM+ cells, FACS)” value with CWR22Rv1 cells was “significantly decreased epithelial proliferation”.

With `CCN(c1nc(N)c(C(=O)N=C(N)N)nc1Cl)C(C)C` [EIPA, 5-(N-ethyl-N-isopropyl) amiloride], the “TMR-dextran uptake by CAF (macropinocytosis)” value with primary CAF is given as “inhibited”. Besides, the tumor size entry in [4] is “dramatically reduced tumor size”. In addition, the “viability (MTT)” value in test [5] is “reduced the viability”; with CWR22Rv1, “no significant effect”; in [6] it was “no significant effect”.

Consider `CCNC(=O)[C@@H]1CCCN1C(=O)[C@H](CCCNC(=N)N)NC(=O)[C@H](CC(C)C)NC(=O)[C@@H](CC(C)C)NC(=O)[C@H](Cc1ccc(O)cc1)NC(=O)[C@H](CO)NC(=O)[C@H](Cc1c[nH]c2ccccc12)NC(=O)[C@H](Cc1c[nH]cn1)NC(=O)[C@@H]1CCC(=O)N1` [L, Leuprolide], for which, in test [1], the PSA on treatment was <0.1 and 7.8 and 0.1 and 1.1 and 1.2 and 0.2. The Outcome result in [1] (individual PCa patient, responsiveness to ADT based on serum PSA) is “Responsive (4×) and Non- (2×)”.

Regarding `CC(O)(CS(=O)(=O)c1ccc(F)cc1)C(=O)Nc1ccc(C#N)c(C(F)(F)F)c1` (stereo not shown) [bicalutamide], the PSA on treatment in test [1] is 11.3.

In the case of `N[C@@H](CCC(=O)O)C(=O)O` [glutamate], the “ALDH (stem marker)” value in test [2] (prostate cancer epithelial cells (FIG. 17A, 17B)) is listed as “upregulates ALDH further”.
